Test results published in patent US8278337B2, “Substituted pyridines that are JNK inhibitors” (Merck Sharp & Dohme, priority 2006, dated 2012).
Where “and” joins values, the source holds several entries; their conditions need not be identical. Equal entries are not always repeated. Where two headings read alike, the source gives them in different places.

Assays:
Type in all cases: biochemical
[1] = biological target: JNK2 (Homo sapiens, UniProt P45984); experiment: DELFIA kinase assay, JNK2
Experimental: (§1) Assay DELFIA (Dissociation Enhanced Lanthanide Fluorescence Immuno-Assay) Assay:
(§2) Before initiation of kinase reactions, compounds were pre-incubated with the enzyme for 10 minutes. Pre-incubation reactions contained 50 mM HEPES pH 7.3, 10 mM MgCl2, 1 mM DTT, 75 mM NaCl, 1 mM EDTA, 1 mM EGTA, 0.01% CHAPS, 2 nM JNK1, 6 ug/mL biotinylated GST-ATF2, 0.1 mg/ml BSA, 5% DMSO and 0-100 μM compound in a total volume of 40 μL. After a 10 minute room temperature pre-incubation, 10 μL of 35 μM ATP was added to start the reaction (final concentration of ATP=7 uM). Reactions were incubated at room temperature for 30 minutes. A small aliquot (10 uL) was taken and quenched by adding into 190 uL of DELFIA Assay buffer containing 100 mM EDTA. The amount of phosphate transferred to biotinylated GST-ATF2 was measured using the Dissociation Enhanced Lanthanide Fluorescence Immuno-assay (DELFIA) from Perkin Elmer according to manufacturers protocol. Briefly, biotinylated GST-ATF2 was captured on streptavidin coated plates for 1 hour, washed twice, then incubated for 1 hour with a 1:1000 dilution of rabbit-anti-phospho-ATF2 antibody and a 1:3500 dilution of Europium-labeled anti-rabbit secondary antibody. Free antibody was removed with six washes, Europium was dissociated from the antibody, and Europium fluorescence was measured using an excitation wavelength of 340 nm and an emission wavelength of 615 nm. JNK2 and JNK3 kinase reactions were carried out similarly, with the exception that the final concentration of ATP was 4 uM and 2 uM, respectively.

[2] = biological target: JNK1 (Homo sapiens, UniProt P45983); experiment: DELFIA kinase assay, JNK1
In short: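 Enzyme (2 nM JNK1) was preincubated 10 min with 0–100 μM compound in HEPES pH 7.3 with 5% DMSO, then reacted 30 min at room temperature with biotinylated GST-ATF2 (6 ug/mL). Final ATP was 7 uM for JNK1, 4 uM for JNK2 and 2 uM for JNK3. Phospho-ATF2 was detected by DELFIA europium fluorescence (ex 340, em 615 nm).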

[3] = biological target: JNK3 (Homo sapiens, UniProt P53779); experiment: DELFIA kinase assay, JNK3
Experimental: as §1, §2

[4] = DELFIA assay, 2 nM JNK1, 7 uM ATP, 10 min pre-incubation
[5] = DELFIA, biotinylated GST-ATF2 substrate, 10 minute pre-incubation, final ATP 7 uM
[6] = DELFIA, biotinylated GST-ATF2 substrate, final ATP 4 uM
[7] = DELFIA, biotinylated GST-ATF2 substrate, final ATP 2 uM
[8] = DELFIA assay, 2 nM JNK1, 7 uM ATP, 10 min pre-incubation, second table, read-out: JNK 1 IC50

Chain of JNK1 (P45983 whole entry, species assumed): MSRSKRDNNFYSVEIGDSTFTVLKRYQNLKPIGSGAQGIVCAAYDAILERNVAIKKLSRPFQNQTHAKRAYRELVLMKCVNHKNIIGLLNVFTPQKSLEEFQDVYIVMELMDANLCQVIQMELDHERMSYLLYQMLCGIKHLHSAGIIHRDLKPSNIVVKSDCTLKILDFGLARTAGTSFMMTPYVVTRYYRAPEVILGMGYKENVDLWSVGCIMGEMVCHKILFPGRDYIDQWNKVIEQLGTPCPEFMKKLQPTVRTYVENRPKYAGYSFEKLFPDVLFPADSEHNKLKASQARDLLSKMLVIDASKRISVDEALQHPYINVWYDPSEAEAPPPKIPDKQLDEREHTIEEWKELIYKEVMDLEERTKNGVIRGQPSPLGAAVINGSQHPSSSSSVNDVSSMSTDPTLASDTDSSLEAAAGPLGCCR
Chain of JNK3 (P53779 whole entry, species assumed): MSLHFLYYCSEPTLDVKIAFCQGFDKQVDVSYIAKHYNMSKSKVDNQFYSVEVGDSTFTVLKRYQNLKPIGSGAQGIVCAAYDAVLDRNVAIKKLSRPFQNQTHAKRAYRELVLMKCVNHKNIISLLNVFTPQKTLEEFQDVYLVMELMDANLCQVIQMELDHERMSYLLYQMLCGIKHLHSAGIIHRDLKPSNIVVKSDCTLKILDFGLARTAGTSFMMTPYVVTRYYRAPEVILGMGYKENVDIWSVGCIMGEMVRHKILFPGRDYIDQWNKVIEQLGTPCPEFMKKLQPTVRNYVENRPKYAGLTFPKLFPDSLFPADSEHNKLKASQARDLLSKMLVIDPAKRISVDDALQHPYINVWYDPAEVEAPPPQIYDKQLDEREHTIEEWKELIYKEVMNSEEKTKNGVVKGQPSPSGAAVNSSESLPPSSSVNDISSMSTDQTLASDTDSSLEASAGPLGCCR
Chain of JNK2 (P45984 whole entry, species assumed): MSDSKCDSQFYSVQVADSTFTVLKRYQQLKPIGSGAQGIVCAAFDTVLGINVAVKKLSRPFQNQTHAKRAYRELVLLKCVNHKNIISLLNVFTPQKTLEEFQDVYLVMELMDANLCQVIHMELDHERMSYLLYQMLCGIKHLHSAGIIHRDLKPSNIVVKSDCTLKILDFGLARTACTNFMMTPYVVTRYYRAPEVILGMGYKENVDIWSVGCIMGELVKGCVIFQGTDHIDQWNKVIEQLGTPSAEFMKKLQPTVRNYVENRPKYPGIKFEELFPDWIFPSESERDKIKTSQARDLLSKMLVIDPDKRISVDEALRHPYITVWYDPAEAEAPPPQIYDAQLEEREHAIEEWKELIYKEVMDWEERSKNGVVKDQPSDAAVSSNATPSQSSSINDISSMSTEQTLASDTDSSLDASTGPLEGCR

IC50 ([1]; DELFIA assay)	IC50 [2, 4]	IC50 [2, 5]	IC50 ([3]; DELFIA assay)	IC50 [1, 6]	IC50 [3, 7]	IC50 [2, 8]	Compound
20 nM	15 nM	4 to 19 nM and 4 to 97 nM	20 nM				CC(C)NC(=O)c1cccc(C(=O)NCc2cnn(-c3cccc(C#N)c3)c2)n1 [Compound 134]
		4 to 97 nM and 27 nM		48 nM	16 nM		CC(C)NC(=O)c1cccc(C(=O)NCc2cnn(-c3ccc(C#N)cc3)c2)n1 [Compound 135]
3 nM	13 nM	4 to 19 nM and 4 to 97 nM	12 nM				CC(C)NC(=O)c1cccc(C(=O)NCc2cnn(-c3ccc(S(C)(=O)=O)cc3)c2)n1 [Compound 137]
		4 to 19 nM and 4 to 97 nM and 13 nM		11 nM	9 nM		CC(C)NC(=O)c1cccc(C(=O)NCc2cnn(-c3cccc(C(F)(F)F)c3)c2)n1 [Compound 140]
		4 to 19 nM and 4 to 97 nM and 6 nM		8 nM	9 nM		CC(C)NC(=O)c1cccc(C(=O)NCc2cnn(-c3ccc4ncccc4c3)c2)n1 [Compound 142]
		4 to 19 nM and 4 to 97 nM and 11 nM		8 nM	9 nM		CC(C)NC(=O)c1cccc(C(=O)NCc2cnn(-c3ccc(S(=O)(=O)N(C)C)cc3)c2)n1 [Compound 152]
8 nM	18 nM	4 to 97 nM and 4 to 19 nM	10 nM			18 nM	CC(C)NC(=O)c1cccc(C(=O)NCc2cnn(-c3cnc4cccnc4c3)c2)n1 [Compound 222]
11 nM	17 nM	4 to 19 nM and 4 to 97 nM	12 nM			17 nM	Cc1nc2ccc(-n3cc(CNC(=O)c4cccc(C(=O)NC(C)C)n4)cn3)cc2n1C [Compound 233]
